Entries after “also recorded” stand apart in the source; their conditions may differ.
Columns and labels:
[1] = system: subjects with bilateral patello-femoral knee osteoarthritis; assay: Same study: MRI-based periarticular bone area and 3D bone shape (AAM, B Score); assay type: in vivo, human
Excerpt: The 3D bone shape change can be quantified using active appearance modelling (AAM). AAM enables encoding of the 3D shape and appearance of an object using multiple anchor points (“principal components”) on the surface of the object. These principal components describe computationally the specific 3D shape of the object. The use of AAM to represent femur, tibia, and patella shapes has been described in detail by Neogi, et. al. (Neogi 2013).
The MRI images of each knee used in cartilage thickness measurement were used to measure surface area of the periarticular bone in lateral and medial femur, lateral and medial trochlear femur, lateral and medial tibia, as well as lateral and medial patella. Bone shape scores in femur, trochlear femur, tibia, and patella were also measured using the same MRI images.
All KOOS subscale scores, WOMAC Total score and subscale scores, MRI-based patello-femoral and tibiofemoral cartilage thickness, and MRI-based periarticular bone area and 3D bone shape were analyzed.
MRI images were provided to central readers cartilage and periarticular bone measures. Central readers were blind as to treatment assignment.
Bone area and 3D shape of periarticular bone were analyzed using AAM software developed by iMorphics (www.imorphics.com) specifically for assessing these parameters in the osteoarthritic knee.
Statistical analyses were carried out using a two-sided paired t-test at the 5% level of significance. The outcome variables were the differences of the change of the score of each subscale of KOOS, change of cartilage thickness, periarticular bone area, and 3D bone shape score (“B Score”) change from baseline to 6 and 12 months in the treated knee (“Index Knee”) compared with the placebo-exposed knee (“Control Knee”).
Change in periarticular bone area and 3D bone shape as measured by MRI was also compared between Index and Control Knee groups. It should be noted that there were eight subjects whose MRI images were of insufficient quality and were excluded from bone area and shape analyses. Therefore, each evaluable treatment arm consisted of 85 knees.

[2] = system: full-thickness chondral defect; details: in vivo; cited from earlier work
[3] = system: subjects with bilateral patello-femoral knee osteoarthritis; assay: Same study: safety and tolerability; assay type: in vivo, human
Experimental: The study was divided into Part A and Part B. The Part A was designed to evaluate safety of intra-articular (I.A.) administration of TPX-100 at different dosing levels (20, 50, 100, or 200 mg per injection in sequential cohorts) in the subjects with osteoarthritis of the knees and to select a dose for Part B. Part B was to evaluate safety and efficacy of the selected dose of TPX-100.
Subjects in Part A were enrolled in sequential cohorts and randomized to receive 20, 50, 100 or 200 mg of TPX-100 in one knee (Index Knee) and identical placebo in the contralateral (Control) knee. Subjects, sites and sponsor and central MRI readers were blinded as to treatment assignment. A Safety Review Committee (SRC) evaluated safety in each dosing cohort. The SRC assessed safety and determined whether the next higher dosing regimen could be enrolled. All dosing cohorts in Part A were completed and analyzed with regard to safety prior to dose selection and initiation of Part B.
On the first dosing day, the randomized subjects were assessed by physical examinations and vital signs. Further, they completed the Knee injury and Osteoarthritis Outcome Score (KOOS), which includes the Western Ontario and McMaster Universities Osteoarthritis Index (WOMAC). The KOOS questionnaire assesses knee-specific activities of daily living, sports and recreation, knee-related quality of life, other symptoms such as stiffness, and knee pain. The KOOS has been used extensively in longitudinal studies of knee osteoarthritis. After assessments were completed, subjects received one intra-articular injection in each knee, with each injection prepared from the vial(s) marked for that knee. One knee received TPX-100, and the contralateral knee received placebo with subject, site, and sponsor blinded to treatment assignment. Subjects were monitored for adverse events during the injections and for a few hours after the injections. Vital signs were also monitored after the injections.
On the 7th, 14th, and 21st days after the first dosing, subjects received the second, third, and fourth (last) dosing of the same study materials, respectively. Safety and adverse event assessments were obtained as on the first dosing day.
Subjects returned to their respective study sites at 3, 6 and 12 months after the first dosing day for follow-up evaluations. In addition, the study sites monitored the subject's condition through telephone contact 9 months after the first dosing day. During the 3, 6, and 12 months post-treatment, subjects were evaluated on site with physical examinations, vital signs, serum chemistries, as well as completing patient-reported outcomes including the KOOS. Adverse events and concomitant medications were recorded. MRIs of both knees were obtained during the 6 and 12-month visits.

Substance: TPX-100: synthetic peptide consisting of 23 amino acids, TDLQERGDNDISPFSGDGQPFKD, derived from human Matrix Extracellular Phosphoglycoprotein (MEPE)
- Mean bone shape change rate ([1]; Index Knees, first 6 months): 0.03
- Periarticular bone area change, lateral femur, lateral patella and medial patella ([1]; Index Knees, first 6 months): nearly zero in all regions
- 3D periarticular bone shape change of femur (B score) ([1]; Index vs Control Knees, 6 and 12 months (p=0.005 and 0.007)): statistically significant decrease in shape change compared to Control Knees; also recorded: statistically significant (p<0.05) difference in favor of Index Knees
- Periarticular bone area increase, medial femur ([1]; Index vs Control Knees, 6 months): less periarticular bone area increase as compared to Control Knees at 6 months, with a trend toward statistical significance (p=0.08); also recorded: less pathological bone area increase as compared to Control Knee at 6 months, with a trend toward statistical significance (p=0.08)
- Periarticular bone area increase, lateral femur, lateral and medial patella ([1]; Index vs Control Knees, 12 months): slower increase at 12 months compared with Control Knees
- 3D periarticular bone shape changes in tibia and patella ([1]; Index vs Control Knees, no statistically significant difference): slower changes in Index Knees as compared to Control Knees
- 3D bone shape change of patella in pain frequency responder group ([1]; responders, through 12 months): remained approximately zero through 12 months; also recorded: eventually no change in the 3D bone shape in patella
- Safety and tolerability in goats [2]: safe and well-tolerated
- Safety and tolerability ([3]; 200 mg per dose, 4 once-weekly intra-articular injections): safe and well tolerated
- Dose-limiting toxicities ([3]; Part A, 20, 50, 100 and 200 mg per injection): no dose-limiting toxicities
- Severe adverse events related to treatment ([3]; in vivo): no severe adverse events that were related to TPX-100 treatment
- Severity of treatment-related adverse events ([3]; in vivo): mild or moderate, transient
